Measured values as given in patent US11661404B2, “Prodrug compounds activated by AKR1C3 and their use for treating hyperproliferative disorders” (priority 2018, dated 2023).
“Also recorded” adds a separate entry of the source.

Experiments:
[1] = tested on: AKR1C3 mixed MCLs; conditions: Silva, MSc Thesis; cited from earlier work
[2] = tested on: mixed MCLs that only express 1% of the activating reductase E. coli NfsB; conditions: 1% NfsB-expressing cells; Singleton et al., 2007; cited from earlier work
[3] = tested on: HCT116 colon cancer cells engineered to over-express AKR1C3; assay: Anti-proliferative IC50 assay (SRB), HCT116 over-expressing AKR1C3; type: cell-based, human
From the text: (§1) The cellular cytotoxicity of compounds of the invention resulting from AKR1C3-dependent metabolism of the compounds can readily be observed in anti-proliferative IC50 testing in isogenic cell lines that have been engineered to over-express human AKR1C3, relative to their wild-type counterparts that have been selected for their comparatively low levels of endogenous AKR1C3 expression (by Western blot analysis). The direct role of AKR1C3 in metabolism and cytotoxicity of the compounds is further supported for selected examples by repeat anti-proliferative experiments in the presence of a potent and selective small molecule inhibitor of AKR1C3, SN34037 (Flanagan et al., Bioorganic & Medicinal Chemistry (2014), 22(3), 967-977).
(§2) Four hundred cells were seeded in a volume of 100 μL in each well of a 96-well plate. The cells were left in a humidified incubator (37° C., 5% CO2) for 2 hours in order to enable attachment to the surface of the wells prior to compound addition. All compounds were prepared as stocks in DMSO and stored at −80° C. Frozen stocks of compounds were thawed immediately prior to addition to cells. Working solutions of each compound were made in α-MEM+5% FBS (v/v) at 3 times the required final concentration for the top well. The final concentration of DMSO in the α-MEM solution was ensured to not exceed 1% of the total volume. 50 μL of the working solution was added to the top wells (in duplicates) and gently mixed. The solubility of some compounds precluded the working solution in α-MEM to be 3 times the desired top well concentration. […] A 3-fold serial dilution was carried out along the plate starting from the top well. The first column of wells on the plate served as blanks (containing α-MEM+FBS) and the second column served as control wells (containing cells with no compound added). Following compound addition, the plates were incubated for 4 hours in a humidified incubator (37° C., 5% CO2).
(§3) Following the 4 hour compound exposure, the 96-well plates were washed three times by aspirating media with an Immuno Washer (Nunc) and each well replaced with 150 μL of α-MEM+5% (v/v) FBS+1% (v/v) P/S. The plates were left in a humidified incubator (37° C., 5% CO2) for 5 days to enable cell growth. The cells in 96-well plates were fixed 5 days after compound exposure by adding 50 μL of a 40% (w/v) trichloroacetic acid (TCA) solution so as to obtain a final TCA concentration of 10% in each well. The plates were left in the refrigerator (4° C.) for 1 hour and subsequently rinsed 3 times in tap water. Any excess water was left to drain and the cells were stained with 50 μL of 0.4% (w/v) sulforhodamine B (SRB). The plates with the SRB stain were left in the dark for 30 minutes. Excess stain was removed from the wells by rinsing the plates 4 times in water containing 1% (v/v) acetic acid. The stain was solubilised by adding 100 μL of 10 mM unbuffered Tris (pH 10.5) to each well and the plates were left in a shaker in a dark environment at room temperature for at least 1 hour. The absorbance values of the wells were determined by an ELx 808 Absorbance Microplate Reader (Bio-Tek Instruments, Winooski, Vt., USA), with the wavelength of the measurement filter set at 490 nm and a reference filter set at 450 nm. The absorbance of the reference filter was subtracted from the measurement filter to obtain a final absorbance of λ490-450 nm. The absorbance data was analysed and IC50 values determined by the KC4 microplate data analysis software (KC4™ V3.4, Bio-Tek).
(§4) Anti-proliferative IC50 assays were repeated as described above including the addition of 3 μM SN34037, a selective and potent small molecule inhibitor of AKR1C3.

[4] = tested on: wild-type HCT116 colon cancer cells; assay: Anti-proliferative IC50 assay (SRB), wild-type HCT116; type: cell-based, human; conditions: 4 hour exposure, 5 days growth; read-out: HCT116-WT IC50
From the text: as §1, §2, §3, §4

[5] = Solubility by HPLC in water and lactate buffer; type: physicochemical; conditions: water, room temperature; read-out: Solubility, Water, RT
Protocol: (§5) The solubility and stability of compound 641 was studied by HPLC in lactate buffer (pH 4) and water as the free base and the mesylate salt (641.Ms) at 0° C. and room temperature (RT). […] However, this was improved considerably by formulation as the mesylate salt, producing a solubility of greater than 100 mmol/L in lactate buffer and greater than 70 mmol/L in water. […] This stability was improved considerably by reducing the temperature of the solution to 0° C.

[6] = tested on: PLC/PRF/5 hepatocellular carcinoma xenografts; assay: Tumour growth delay, PLC/PRF/5 xenografts; type: in vivo, NIH-III mice; conditions: q4dx4 intraperitoneal, 114 mg/kg
From the text: (§6) Specific pathogen-free female homozygous nude NIH-III (NIH-Lyst^bg Foxn1^nu Btk^xid) mice were bred by the Vernon Jansen Unit (shared vivarium, University of Auckland). Animals were housed in Techniplast microisolator cages and provided with a standard twelve hour day-night light schedule. Animals received standard rodent diet (Harlan Teklad diet 2018i) and water ad libitum. All animal studies were approved by the University of Auckland Animal Ethics Committee.
(§7) Animals weighed 18-25 g at the time of tumour inoculation. Tumours were grown subcutaneously on the right flank of mice by inoculating cells grown in tissue culture (1×10^7 cells in 100 uL serum free α-MEM). Tumour sizes were monitored three times weekly using electronic callipers and treatments were initiated once tumour diameter reached ≥7 mm.
(§8) Tumour bearing mice were randomised into the appropriate treatment groups and tumour size and body weight recorded. Test compounds were formulated on the day of the experiment and kept in foil-wrapped tubes out of direct fluorescent light. […] Mice were treated with a single (or q4dx3 or q4dx4 or q4dx6) dose of a compound of the invention by intraperitoneal injection and thereafter tumour size and body weight was monitored every second day. Tumour volume was calculated as […] (l×w×w)/6, where l is the major axis and w is the perpendicular minor axis. […]

[7] = tested on: H460 lung cancer xenografts; assay: Tumour growth delay, H460 xenografts; type: in vivo, NIH-III mice
From the text: as §6, §7
Tumour bearing mice were randomised into the appropriate treatment groups and tumour size and body weight recorded. Test compounds were formulated on the day of the experiment and kept in foil-wrapped tubes out of direct fluorescent light. If recruitment of animals occurred over multiple days, the drug stocks were aliquoted into tubes and frozen once at −80° C. until required. Mice were treated with a single (or q4dx3 or q4dx4 or q4dx6) dose of a compound of the invention by intraperitoneal injection and thereafter tumour size and body weight was monitored every second day. Tumour volume was calculated as […] (l×w×w)/6, where l is the major axis and w is the perpendicular minor axis. Animals were culled when they had reached the appropriate survival endpoint or when body weight loss exceeded 20% of the pre-treatment value.

[8] = tested on: SNU-398^AKR1C3 (AKR1C3 over-expressing) hepatocellular carcinoma xenografts; assay: Tumour growth delay, SNU-398 AKR1C3 over-expressing xenografts; type: in vivo, NIH-III mice; conditions: q4dx4 intraperitoneal, 50 mg/kg
From the text: as §6, §7, §8

[9] = Stability in solution by HPLC in water and lactate buffer; type: physicochemical
Protocol: as §5

[10] = tested on: SW780 bladder carcinoma xenografts; assay: Tumour growth delay, SW780 xenografts; type: in vivo, NIH-III mice; conditions: q4dx6 intraperitoneal, 50 mg/kg
From the text: as §6, §7, §8

[11] = tested on: SNU-398^WT (wild type) hepatocellular carcinoma xenografts; assay: Tumour growth delay, SNU-398 wild type xenografts; type: in vivo, NIH-III mice; conditions: q4dx4 intraperitoneal, 50 mg/kg; negligible AKR1C3 expression; FIG. 7
From the text: as §6, §7, §8

O=C(NCCO)c1cc([N+](=O)[O-])cc([N+](=O)[O-])c1N(CCBr)CCBr [SN27686, reference compound]
BEE reported in AKR1C3 mixed MCLs [1]: 57.6%
bystander effect [2]: 48%
IC50 ([3]; 4 hour exposure, 5 days growth, read-out: HCT116-AKR1C3 IC50): 1.46 µM
IC50 Ratio WT:AKR1C3 ([3]; HCT116-WT vs HCT116-AKR1C3): 29
IC50 [4]: 42.6 µM

CN1CCN(S(=O)(=O)c2cc([N+](=O)[O-])ccc2N(CCOS(C)(=O)=O)CCOS(C)(=O)=O)CC1 [Compound 641.Ms, 4-((2-(bis(2-((methylsulfonyl)oxy)ethyl)amino)-5-nitrophenyl)sulfonyl)-1-methylpiperazin-1-ium methanesulfonate]
solubility [5]: > 70 mM
tolerability of schedule [6]: well-tolerated
anti-tumour activity (mean tumour volume) ([6]; FIG. 5): significant anti-tumour activity
anti-tumour efficacy (mean tumour volume) ([7]; q4dx4 intraperitoneal, 10, 25, 50, 100 and 150 mg/kg, FIG. 4): significant anti-tumour efficacy
mean percentage change in body weight ([7]; q4dx4 intraperitoneal, 10-150 mg/kg, all dose cohorts): ≥ −10%
tolerability ([7]; q4dx4 intraperitoneal, 10-150 mg/kg, methanesulfonate): well-tolerated; also recorded: well tolerated
anti-tumour efficacy (mean tumour volume) ([7]; single dose intraperitoneal, 237, 422, 562, 750 and 1000 μmol/kg, FIG. 3): significant anti-tumour efficacy
tolerability ([7]; single dose intraperitoneal, 237-1000 μmol/kg): well-tolerated
anti-tumour activity (mean tumour volume) ([8]; FIG. 7): significant anti-tumour activity
tolerability of schedule ([8]; mice bearing SNU-398^WT or SNU-398^AKR1C3 xenografts): well-tolerated
Stability (% Parent after 24 hours), Lactate Buffer, 0° C. ([9]; lactate buffer (pH 4), 0° C.): 91.7%
Stability (% Parent after 24 hours), Lactate Buffer, RT ([9]; lactate buffer (pH 4), room temperature, methanesulfonate): 51.9%
Stability (% Parent after 24 hours), Water, RT ([9]; water, room temperature): 53.8%
tolerability of schedule [10]: well-tolerated
anti-tumour activity (mean tumour volume) ([10]; FIG. 6): significant anti-tumour activity
anti-tumour activity (mean tumour volume) [11]: inactive
